# Laboratory results reported in US20260015339A1, “CALIX[4]ARENES WITH HIGH ANTICANCER ACTIVITY” (UNIVERSITE GRENOBLE ALPES, priority 2023, published 2026).
# pIC50: −log10 of the molar value.
# Legend:
# [1] = tested on: H322 lung carcinoma cells; assay: MTS cytotoxicity assay on H322; assay type: cell-based; settings: NCI-H322; H322, 72 hours of treatment
# Method: H322 lung carcinoma cells were seeded in 96-well plates together with the calix[4]arene of the formula (2). Cells were grown in RPMI-1640 supplemented with GlutaMAX™ (Gibco™) and fetal calf serum (FCS, 10%) and treated with a broad range of concentrations of the calix[4]arene of the formula (2). After 72 hours of treatment, the cytotoxicity was measured by means of the IC50 value, using the kit “CellTiter 96R AQuous One Solution Cell Proliferation Assay (MTS)” from Promega™. Following 30 minutes of incubation with the MTS reagent, the endpoint measurements were done in triplicate at 485 nm, using a fluorescence plate reader.
# H322 lung carcinoma cells were seeded in 96-well plates together with the compound of the 2nd comparative example of the formula (XI). Cells were grown in RPMI-1640 supplemented with GlutaMAX™ (Gibco™) and fetal calf serum (FCS, 10%) and treated with a broad range of concentrations of the 2nd comparative example of the formula (XI). After 72 hours of treatment, the cytotoxicity was measured by means of the IC50 value, using the kit “CellTiter 96R AQuous One Solution Cell Proliferation Assay (MTS)” from Promega™. Following 30 minutes of incubation with the MTS reagent, the endpoint measurements were done in triplicate at 485 nm, using a fluorescence plate reader.
# H322 lung carcinoma cells were seeded in 96-well plates together with the 1st comparative example of the formula (X). Cells were grown in RPMI-1640 supplemented with GlutaMAX™ (Gibco™) and fetal calf serum (FCS, 10%) and treated with a broad range of concentrations of the compound of the formula (X). After 72 hours of treatment, the cytotoxicity was measured by means of the IC50 value, using the kit “CellTiter 96R AQuous One Solution Cell Proliferation Assay (MTS)” from Promega™. Following 30 minutes of incubation with the MTS reagent, the endpoint measurements were done in triplicate at 485 nm, using a fluorescence plate reader.
# H322 lung carcinoma cells were seeded in 96-well plates together with the tested calix[4]arenes. Cells were grown in RPMI-1640 supplemented with GlutaMAX™ (Gibco™) and fetal calf serum (FCS, 10%) and treated with a broad range of concentrations of the tested calix[4]arenes. After 72 hours of treatment, the cytotoxicity was measured by means of the IC50 value, using the kit “CellTiter 96R AQuous One Solution Cell Proliferation Assay (MTS)” from Promega™. Following 30 minutes of incubation with the MTS reagent, the endpoint measurements were done in triplicate at 485 nm, using a fluorescence plate reader.
# [2] = tested on: Non-malignant MRC5-SVII cells; assay: MTS cytotoxicity assay on MRC5-SVII; assay type: cell-based; settings: 72 hours of treatment
# Method: Cells were grown in Minimal Essential Medium—Non Essential Amino Acids (MEM NEAA) culture medium from Gibco™, supplemented with sodium pyruvate ([…]), and fetal calf serum (FCS, 10%) and treated with a broad range of concentrations of the 2nd comparative example of the formula (XI).
# [3] = Cu^+ transport into liposomes with encapsulated BCS; settings: POPC/cholesterol 7:3 LUVs, calix[4]arene to lipid 1:1000, 50 μM copper gradient, F/F0 after 600 s
# Method: The ability of the examples of calix[4]arenes of the invention and the comparative examples to be delivered into a lipidic bilayer membrane of a liposome from a solution and their capacity to then act as a transporter of Cu^+ was evaluated using bathocuproine disulphonate (hereafter abbreviated “BCS”) encapsulated in large unilamellar vesicles (LUVs, also referred to as liposomes) composed of 1-palmitoyl-2-oleoyl-sn-glycero-3-phosphocholine and cholesterol in a 7:3 ratio.
# BCS is a fluorescent water soluble phenantroline derivative that can be used as fluorescent dye for the sensing of Cu^+ through the formation of a non-fluorescent 2:1 complex.
# Stock solution of lipids were prepared using deacidified CHCl3 and stored in a freezer. CHCl3 was deacidified by passing through activated basic alumina. The lipids used to prepare the liposomes were 2-oleoyl-1-palmitoyl-sn-glycero-3-phosphocholine (POPC), (purity ≥99%) and cholesterol (purity of 95%). 50 mM sodium phosphate buffer were prepared with Millipore water at pH 7 (±0.1) by mixing the solution of the mono- and the di-protonated phosphate salts. The solution of the dye (BCS) was prepared at 0.5 mM concentration in phosphate buffer.
# The lipids solutions were mixed in different ratios in a 5 mL round bottom flask. The POPC/cholesterol molar ratio was 7:3 in all experiments. The total amount of lipids per batch varied depending on the amount of liposomes solution required for the experiment. After mixing the lipid solutions in a round bottom flask, the chloroform was evaporated under a gentle air flow and the resulting lipid film was dried at high vacuum for at least an hour. 500 μL of the BCS solution in phosphate buffer and a magnetic stir bar were added to the flask. The flask was then sonicated for 30 seconds and placed under magnetic agitation for at least an hour. The solution was frozen with liquid nitrogen and heated back to room temperature with warm water ten times to form large unilamellar vesicles (LUVs). The liposome solution was extruded 29 times, using an extrusion kit equipped with a membrane with 200 nm pores. Subsequently, the solution was eluted with the buffer solution used for the experiment through a size exclusion column (Sephadex G-25) to remove the external BCS and then diluted with phosphate buffer to obtain a concentration of 0.4 mM in lipids.
# Solutions of the calix[4]arenes were prepared at a concentration of 0.24 mM in DMSO and 5 μL of the solution was added 2 minutes before each transport measurement.
# Alternatively, calix[4]arenes were pre-incorporated by combining the calix[4]arene (dissolved in chloroform) with the lipids prior to the evaporation of the chloroform to obtain a lipid film. The concentrations and volumes were chosen to obtain a calix[4]arene to lipid of 1:1000.
# Fluorescence measurements were performed with a Horiba FluoroMax 4 spectrometer using a 4-faced quartz cuvette (10 mm×10 mm). For the Cu^+ transport assay, the excitation was set at 278 nm and emission was recorded at 393 nm. These values correspond to the excitation and emission maxima of BCS encapsulated inside LUVs.
# The Cu^+ solutions added to the liposomes were obtained by dissolving Cu(MeCN)4BF4 in MeCN at 15.25 mM concentration. The copper solution was then diluted by a factor 5 in a phosphate buffer during the first 30 seconds of the experiment to reach a copper concentration of 3.05 mM. 50 μL of the diluted copper solution was added to 3 mL of liposomes, resulting in a copper gradient of 50 μM. The fluorescence level was monitored for 600 seconds after the addition of the copper solution.
# For each run the initial plateau and the initial vertical drop (due to the binding of the exterior dye with Cu^+ and the dilution, 1-4 seconds after the addition) were removed. Then the signal was normalised by dividing the fluorescence values (F) by the value at t=0 second (F0). […]
# [4] = tested on: Hepatocellular carcinoma (HepG2/C3A) cells; assay: MTT cytotoxicity assay (DL50); assay type: cell-based; settings: 24 hours of incubation
# Method: Cytotoxicity was evaluated using the MTT assay. 1.10^4 cells per well were seeded in a flat-bottom 96-well plate and were incubated for 48 hours at 37° C. with 5% CO2 before addition of the different calix[4]arenes at concentrations up to 200 μM. In all experiments, each condition was performed in triplicate in the plate. Besides, each experiment was done three times independently. After 24 hours of incubation in presence of the compounds, medium was discarded, cells were rinsed with PBS and 100 μL of medium containing 0.5 mg/mL of MTT was added to each well. After 30 minutes of incubation at 37° C., MTT solution was discarded and formazan crystals formed were dissolved in 150 μL of 4 mM HCl, 0.1% NP40 in isopropanol. The absorbance in the wells were read in a microplate reader (Tecan microplate reader-550) at 570 nm.
# [5] = tested on: A549 human lung cancer cells; assay: MTS cytotoxicity assay on A549; assay type: cell-based; settings: A549, 72 hours of treatment
# Method: A549 human lung cancer cells were seeded in 96-well plates together with the calix[4]arene of the formula (2). Cells were grown in RPMI-1640 supplemented with GlutaMAX™ (Gibco™) and fetal calf serum (FCS, 10%) and treated with a broad range of concentrations of the calix[4]arene of the formula (2). After 72 hours of treatment, the cytotoxicity was measured by means of the IC50 value, using the kit “CellTiter 96R AQuous One Solution Cell Proliferation Assay (MTS)” from Promega™. Following 30 minutes of incubation with the MTS reagent, the endpoint measurements were done in triplicate at 485 nm, using a fluorescence plate reader.
# A549 human lung cancer cells were seeded in 96-well plates together with the compound of the 2nd comparative example of the formula (XI). Cells were grown in RPMI-1640 supplemented with GlutaMAX™ (Gibco™) and fetal calf serum (FCS, 10%) and treated with a broad range of concentrations of the 2nd comparative example of the formula (XI). After 72 hours of treatment, the cytotoxicity was measured by means of the IC50 value, using the kit “CellTiter 96R AQuous One Solution Cell Proliferation Assay (MTS)” from Promega™. Following 30 minutes of incubation with the MTS reagent, the endpoint measurements were done in triplicate at 485 nm, using a fluorescence plate reader. […]
# [6] = tested on: PC9 human lung cancer cells; assay: MTS cytotoxicity assay on PC9; assay type: cell-based; settings: PC9, 72 hours of treatment
# Method: PC9 human lung cancer cells were seeded in 96-well plates together with the calix[4]arene of the formula (2). Cells were grown in RPMI-1640 supplemented with GlutaMAX™ (Gibco™) and fetal calf serum (FCS, 10%) and treated with a broad range of concentrations of the calix[4]arene of the formula (2). After 72 hours of treatment, the cytotoxicity was measured by means of the IC50 value, using the kit “CellTiter 96R AQuous One Solution Cell Proliferation Assay (MTS)” from Promega™. Following 30 minutes of incubation with the MTS reagent, the endpoint measurements were done in triplicate at 485 nm, using a fluorescence plate reader.
# PC9 human lung cancer cells were seeded in 96-well plates together with the 2nd comparative example of the formula (XI). Cells were grown in RPMI-1640 supplemented with GlutaMAX™ (Gibco™) and fetal calf serum (FCS, 10%) and treated with a broad range of concentrations of the compound of the 2nd comparative example of the formula (XI). After 72 hours of treatment, the cytotoxicity was measured by means of the IC50 value, using the kit “CellTiter 96R AQuous One Solution Cell Proliferation Assay (MTS)” from Promega™. Following 30 minutes of incubation with the MTS reagent, the endpoint measurements were done in triplicate at 485 nm, using a fluorescence plate reader. […]
# [7] = Cu^+ binding by 1H NMR titration; settings: 1H NMR titration with Cu(MeCN)4BF4, CD3CN/CDCl3 4/1, 298 K
# Method: Binding abilities and complexation constants of the examples of calix[4]arenes of the present invention and the comparative examples with Cu^+ were evaluated by ^1H NMR titrations at 298 K using copper(I)tetrakis(acetronitrile)tetrafluoroborate.
# For example, for each separate calix[4]arene a stock solution of the tested calix[4]arene was prepared in a CD3CN/CDCl3, 4/1 mixture. Using this stock solution, a Cu(MeCN)4BF4 solution was prepared and added by steps of 0.25 equivalent of copper(I) up until 1 equivalent and then by steps of 0.5 equivalent until a total of at least 2 equivalents. ^1H NMR spectra were recorded at a 400 MHz spectrometer at 298 K for the stock solutions of the calix[4]arenes and after each addition of Cu(MeCN)4BF4.
# Calix[4]arenes for which a gradual change of the chemical shifts of the ^1H NMR signals (>0.1 ppm for at least one of the signals) was observed upon addition of up to 4-5 equivalents of Cu(MeCN)4BF4 were considered to show weak binding.
structure (smiles),measurement,setting,value
CCCOc1c2cccc1Cc1cccc(c1OCCC)Cc1cccc(c1OCCC)Cc1cccc(c1OCCC)C2 [(XI)],pIC50,[1],< 4.30
same,pIC50,[2],< 4.70
same,Cu^+ transport,[3],No (means that no significant decrease of the fluorescence of encapsulated BCS was observed upon addition of Cu^+ to the liposomes (F/F0 >0.65 after 600 s) when the calix[4]arene was either delivered from a solution in DMSO to liposomes or pre-incorporated into the liposomes)
same,pIC50,[4],3.74
same,pIC50,[5],< 4.30
same,pIC50,[6],< 4.30
same,Cu^+ binding,[7],Not significant (means that no significant changes of chemical shifts (<0.1 ppm) were observed upon addition of 4-5 equivalents of Cu(MeCN)4BF4)
